Measured values reported in PubChem BioAssay (NCI).
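Grown in 96-well plates, cells were treated for 48 hours with each compound at five concentrations. Insufficient inhibition: endpoint recorded as highest concentration tested. GI50 = concentration required for 50% inhibition of growth. Definition used: TGI = concentration required for complete inhibition of growth.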

Tests used:
Assay in all cases: growth of human tumour cells (NCI), 48 h
MDA-MB-435 = system: MDA-MB-435
NCI-H460 lung = system: NCI-H460 lung
SF-295 CNS = system: SF-295 CNS
HCT-15 colon = system: HCT-15 colon
CCRF-CEM leukemia = system: CCRF-CEM leukemia
786-0 renal = system: 786-0 renal
A549 NSCLC = system: A549 NSCLC
SF-539 CNS = system: SF-539 CNS
CAKI-1 renal = system: CAKI-1 renal
UO-31 renal = system: UO-31 renal

Compound | GI50 (MDA-MB-435) [µM] | TGI (MDA-MB-435) [µM] | GI50 (NCI-H460 lung) [µM] | TGI (NCI-H460 lung) [µM] | GI50 (SF-295 CNS) [µM] | TGI (SF-295 CNS) [µM] | GI50 (HCT-15 colon) [µM] | TGI (HCT-15 colon) [µM] | GI50 (CCRF-CEM leukemia) [µM] | TGI (CCRF-CEM leukemia) [µM] | GI50 (786-0 renal) [µM] | TGI (786-0 renal) [µM] | GI50 (A549 NSCLC) [µM] | TGI (A549 NSCLC) [µM] | GI50 (SF-539 CNS) [µM] | TGI (SF-539 CNS) [µM] | GI50 (CAKI-1 renal) [µM] | TGI (CAKI-1 renal) [µM] | GI50 (UO-31 renal) [µM] | TGI (UO-31 renal) [µM]
CCCCc1n(Cc2ccc3ccccc3n2)cc[n+]1Cc1ccc2ccccc2c1 | 0.661 | 1.9 | 0.917 | 2.95 | 1.37 | 4.4 | 5.07 | 18.1 | 1.04 | 4.61 | 1.6 | 3.89 | 1.69 | 11 | 0.916 | 3.05 | 1.62 | 3.64 | 3.22 | 13.6
C=C(C)[C@@H]1CC[C@]2(COC(=O)c3ccccc3C(=O)O)CC[C@]3(C)[C@H](CC[C@@H]4[C@@]5(C)CC[C@H](OC(=O)c6ccccc6C(=O)O)C(C)(C)[C@@H]5CC[C@]43C)[C@@H]12 | 34.6 | > 100 | 85.1 | > 100 | 24.1 | > 100 | 31.3 | > 100 | 30.5 | > 100 | 31.6 | > 100 | 29.8 | > 100 | 36.3 | > 100 | 18.6 | 85.2 | 32.1 | > 100
COc1ncc(-c2ccc3ncnc(Nc4cccc(Cl)c4)c3c2)cc1NS(C)(=O)=O | 2.77 | 17.3 | 1.87 | > 100 | 1.71 | 10.8 | 1.66 | 13.2 | 2.81 | 43.2 | 2.72 | 24.9 | 1.2 | 13.2 | 2.09 | 9.92 | 0.457 | 10.8 | 0.354 | 8.96
CCN(CC)CCOc1ccccc1-n1c(C)ccc1-c1ccccc1 | 14.4 | 29.9 | 18.2 | 38 | 16.3 | 34.2 | 12.6 | 28.2 | 18.7 | 48.6 | 17.1 | 31.8 | 16.3 | 32.1 | 16.1 | 31 | 13.6 | 28 | 10.5 | 24.4
Nc1ccccc1-n1c2c(c3ccccc3c1=O)C(=O)c1ccccc1-2 |  | > 100 |  | > 100 |  | 40.1 |  | > 100 |  | > 100 |  | 55.6 |  | > 100 |  | 26.8 |  | 50.7 |  | 33.9
COC(=O)C(Br)(C(=O)OC)C(Br)C(Br)C(Br)c1ccccc1 (stereo not drawn) | 2.48 | 7.36 | 17.2 | 32.3 | 17 | 33.3 | 2.15 | 6.15 | 2 | 7.21 | 2.72 | 6.7 | 16.9 | 33 | 1.81 | 4.09 | 1.76 | 3.73 | 1.64 | 3.3
CCN1C(=O)N[C@H]2[C@@H]3NC(=O)c4ccc(Cl)n4[C@@H]3C[C@]21O | 1.05 | 11.1 | 0.395 | 16.6 | 1 | 4.93 | 1.66 | 15.6 | 0.224 | 1.25 | 0.902 | 9.06 | 1.74 | 17.6 | 0.369 | 2.57 | 2.87 | > 100 | 3.19 | 24.1
COc1ccc(-n2nc(C(=O)NCC(=O)Nc3nc4cc(OC)ccc4s3)c3ccccc3c2=O)cc1 | 0.641 | 14.3 | 0.556 |  | 0.346 | 1.62 | > 24 | > 100 | > 100 | > 100 | 1.96 | 8.19 | 0.349 | 1.51 | 0.407 | 1.27 | 0.366 | 2.99 | 2.28 | 
O=C1c2ccccc2-c2c1c1ccc3ccccc3c1n2-c1ccccc1 | 97.9 | > 100 | 31.7 | > 100 | 22.9 | 67.4 | > 100 | > 100 | > 100 | > 100 | 25.3 | 53.9 | 36.5 | 93.5 | 18.2 | 36.3 | 22 | 40.9 | 44.7 | > 100
Nc1n[nH]c2cc(F)c([C@@H]3Nc4c(F)cc5[nH]ncc5c4[C@H]4C5CCC(C5)[C@@H]34)cc12 (stereo partly drawn) | 0.0727 | 0.195 | 0.117 | 3.57 | 0.0971 | 3.82 | 0.111 | 3.69 | 0.127 | 28.7 | 0.211 | 7.85 | 0.134 | 13.9 | 0.0792 | 0.23 | 0.137 | 3.38 | 0.209 | 10.8
COc1ccccc1C(=O)Nc1ccc(Cl)c(C(=O)OC(C)C)c1 |  | > 100 |  | > 100 |  | > 100 |  | > 100 |  | > 92.7 |  | > 100 |  | > 100 |  | > 100 |  | > 100 |  | 27.9
COc1ccc2c(ccc3oc([N+](=O)[O-])cc32)c1 | 0.047 | 0.186 | 0.181 | 0.85 | 0.302 | 1.9 | 0.221 | 1.53 | 0.09 | > 40.7 | 0.218 | 0.667 | 0.274 | 1.04 | 0.225 | 0.595 | 0.128 | 0.755 | 0.224 | 0.763
COc1ccccc1N1CCN(CC(O)Cn2c(=O)c3c(OC)nc(C)cc3c(=O)n2-c2ccccc2)CC1 (stereo not drawn) | > 100 | > 100 | > 100 | > 100 | 25.8 | > 100 | > 100 | > 100 | > 100 | > 100 | 24.3 | 76.9 | > 100 | > 100 | 32.6 | > 100 | 32.7 | > 100 | > 100 | > 100
CC(NNC(=S)N1CCN(c2ccccn2)CC1)c1cccc[n+]1[O-] (stereo not drawn) |  | > 100 |  | > 100 |  | > 100 |  | > 100 |  | 20.5 |  | > 100 |  | > 100 |  | 84.2 |  | > 100 |  | 82.3
COc1ccccc1CNC(=O)/C=C/c1ccc(O)c(O)c1 | 58.3 | > 100 | 45.9 | > 100 | > 100 | > 100 | 15.6 | 86.3 | 18.2 | > 100 | 76.1 | > 100 | 64.3 | > 100 | 22.2 | 65.9 | 30.3 | > 100 | 20.5 | > 100
